How the values were obtained:
[1] = test system: rat meningeal fibroblasts (RMF); test: Stripe assay, RMF; type: cell-based; parameters: key: Bands that were completely inhibitory to cell adhesion, migration and/or invasion were evaluated as (−); those allowing limited cell adhesion, migration and/or invasion (+/−); those permissive to cell adhesion, migration and/or invasion as (+); details: for DS-PG Effect on Adhesion, Migration and Invasion: 2 days following plating
Procedure: (§1) Primary Cell Cultures. Primary cultures of rat meningeal fibroblasts (RMF) were obtained from P-3 rat pups. The tissue was removed from the animals and transferred to Leibovitz's L-15 with L-glutamine medium. The tissue was then cut into small pieces with a scalpel blade, enzymatically dissociated with 0.25% trypsin in Ca^2+/Mg^2+ free Hank's balanced salt solution (CMF-HBSS, Gibco Laboratories) for 20 minutes at 37° C., and mechanically triturated. The cells were rinsed with DMEM plus 10% FCS, concentrated by centrifugation and subsequently diluted in DMEM with 10% FCS for plating at 5.0×10^6 cells per 75 cm^2 flask. Adult rat sciatic nerve fibroblasts (RSF) were obtained by explantation of 1 mm sections of adult rat sciatic nerve.
(§2) The stripe assay was performed essentially as described by Snow et al. (1990, Exp. Neural. 309:111-130). Tissue culture Petri dishes (Falcon, 60 mm) were precoated with 0.5 ml of a mixture of 5 cm^2 section nitrocellulose (Schleicher & Schuell, Type BA 85) dissolved in 6 ml methanol, and air dried in a laminar flow hood. Cellulose filter paper (Whatman #1) was cut into 12×0.35 mm strips with a McIlwain tissue chopper (The Mickle Laboratory Engineering Co., LTD). A strip of filter paper was soaked in 20 μl of a solution of DS-PG or KS/CS-PG and LN at given concentration, blotted onto the nitrocellulose-coated dish for 30 sec. and removed. The test solution was allowed to air dry. This process was repeated several times creating clearly defined, equally spaced parallel bands of uniform width on the plates. A thin layer of 0.1 or 1 mg/ml LN was then spread evenly across the bands with a bent glass Pasteur pipet, and covered with culture medium (FIG. 1).
(§3) Plates were seeded with cell suspensions of 2.0×10^5 cells/ml or 4-10 DRG explants. The cultures were assessed for degree of adhesion, migration and/or invasion of the DS-PG or KS/CS-PG bands over a period of up to 7 days using a Leitz Fluovert microscope.
(§4) Bands that were completely inhibitory to cell adhesion, migration and/or invasion were evaluated as (−), those allowing limited cell adhesion, migration and/or invasion (+/−), and those permissive to cell adhesion, migration and/or invasion as (+). cell adhesion was defined as the initial interaction between the cell surface and the substratum which results in cell attachment and spreading. Cell migration was operationally defined as cell movement within the same substratum, and cell invasion was operationally defined as cell movement from one type of substratum to another type of substratum.

[2] = test system: adult rat sciatic nerve fibroblasts (RSF); test: Stripe assay, RSF; type: cell-based; parameters: key: Bands that were completely inhibitory to cell adhesion, migration and/or invasion were evaluated as (−); those allowing limited cell adhesion, migration and/or invasion (+/−); those permissive to cell adhesion, migration and/or invasion as (+); details: for DS-PG Effect on Adhesion, Migration and Invasion: 2 days following plating
Procedure: as §1, §2, §3, §4

rat C6 glioma = test: Stripe assay, C6; type: cell-based; parameters: key to DS-PG Effect on Adhesion, Migration and Invasion / Effect of KS/CS-PG on Cell Migration: Bands that were completely inhibitory to cell adhesion, migration and/or invasion were evaluated as (−); those allowing limited cell adhesion, migration and/or invasion (+/−); those permissive to cell adhesion, migration and/or invasion as (+); details: for DS-PG Effect on Adhesion, Migration and Invasion / Effect of KS/CS-PG on Cell Migration: C6; for DS-PG Effect on Adhesion, Migration and Invasion: 2 days following plating
Procedure: Cell lines. Murine 3T3 fibroblast (NIH), rat C6 glioma (Paganetti et al., 1988, J. Cell Biol. 107:2281) and MCG-28 young immortalized mouse astrocyte (a murine neonatal astrocyte line immortalized with SV-40) were grown in medium composed of Dulbecco's modified Eagle medium (DMEM), 10% fetal calf serum (Gibco Laboratories), and penicillin G/streptomycin (100 units/ml, 100 μg/ml respectively, Gibco Laboratories). For the stripe assay, confluent plates were disaggregated with 0.05% trypsin, 0.53 mM EDTA (Gibco Laboratories) and seeded at 200,000 cells/ml (3 ml/plate). For the cell adhesion assays, confluent cultures were disaggregated with 0.03% EDTA and plated in a 96-well microtiter plate at 20,000-100,000 cells per well. PC12 cells, a pheochromocytoma cell line (Green L. A. & Tischler A. S., 1976, Proc. Natl. Acad. Sci. U.S.A. 73:2424), were grown in medium containing Roswell Park Memorial Institute (RPMI) medium 1640 (Gibco Laboratories), 10% horse serum, 5% fetal calf serum (FCS), and penicillin G/streptomycin (100 units/ml, 100 μg/ml respectively, Gibco Laboratories). The cells were disaggregated with 0.03% EDTA and plated in a 96-well microtiter plate at 3,000 cells per well.
as §2, §3, §4

rat astrocytes (RAST) = test: Stripe assay, RAST; type: cell-based; parameters: key: Bands that were completely inhibitory to cell adhesion, migration and/or invasion were evaluated as (−); those allowing limited cell adhesion, migration and/or invasion (+/−); those permissive to cell adhesion, migration and/or invasion as (+); details: for DS-PG Effect on Adhesion, Migration and Invasion: 2 days following plating
Procedure: Rat astrocytes (RAST) cultures were prepared from P-1-3 rat brain cortices. The cortices were stripped of connective tissue and blood vessels, cut into small pieces and dissociated in 0.5% collagenase (Gibco Laboratories) for 20 min at 37° C., followed by further dissociation in 0.25% trypsin for 15 min, and 0.04 mg/ml DNAse (Sigma) and 0.52 mg/ml soy bean trypsin inhibitor for 5 min at 37° C. The cells were subsequently mechanically dissociated by trituration with a Pastuer pipette and plated at 1.5×10^7 cells in a poly-L-lysine (PLL, Sigma) coated 75 cm^2 flask. The flask was shaken 4 hrs following plating to remove less adherent non-astrocytic oligodendrocytes and neurons.
as §2, §3, §4

[3] = test system: epidural fibrosis at laminectomy site, Lewis inbred rats; test: Epidural fibrosis after lumbar laminectomy in rats, gross evaluation; type: in vivo, rat; parameters: scale not given here; details: Table 4; 20 mg/ml; 4 weeks post-implantation
[4] = 0.1 mg/ml DS-PG + 20 μg/ml LN stripes
[5] = 0.2 mg/ml DS-PG + 20 μg/ml LN stripes
[6] = 0.4 mg/ml DS-PG + 20 μg/ml LN stripes
[7] = 0.8 mg/ml DS-PG + 20 μg/ml LN stripes
[8] = 0.12 mg/ml KS/CS-PG + LN stripes
[9] = 0.25 mg/ml KS/CS-PG + LN stripes
[10] = 0.5 mg/ml KS/CS-PG + LN stripes
[11] = 1.0 mg/ml KS/CS-PG + LN stripes
[12] = 2.7 mg/ml KS/CS-PG + LN stripes

Which results are given for Dermatan sulfate proteoglycan [DS-PG]?
DS-PG Effect on Adhesion, Migration and Invasion [1, 4]: +; DS-PG Effect on Adhesion, Migration and Invasion [1, 5]: +/−; DS-PG Effect on Adhesion, Migration and Invasion [1, 6]: −; DS-PG Effect on Adhesion, Migration and Invasion [1, 7]: −; DS-PG Effect on Adhesion, Migration and Invasion [2, 4]: +/−; DS-PG Effect on Adhesion, Migration and Invasion [2, 5]: +/−; DS-PG Effect on Adhesion, Migration and Invasion [2, 6]: −; DS-PG Effect on Adhesion, Migration and Invasion [2, 7]: −; DS-PG Effect on Adhesion, Migration and Invasion (rat C6 glioma; [4]): +; DS-PG Effect on Adhesion, Migration and Invasion (rat C6 glioma; [5]): +/−; DS-PG Effect on Adhesion, Migration and Invasion (rat C6 glioma; [6]): −; DS-PG Effect on Adhesion, Migration and Invasion (rat C6 glioma; [7]): −; stability of clear stripes (inhibition of C6 cells) (rat C6 glioma; 0.8 mg/ml DS-PG, followed up to 6 days): ≥ 4 days; DS-PG Effect on Adhesion, Migration and Invasion (rat astrocytes (RAST); [4]): +; DS-PG Effect on Adhesion, Migration and Invasion (rat astrocytes (RAST); [5]): +/−; DS-PG Effect on Adhesion, Migration and Invasion (rat astrocytes (RAST); [6]): +/−; DS-PG Effect on Adhesion, Migration and Invasion (rat astrocytes (RAST); [7]): −

Which results are given for “keratan sulfate/chrondroitin sulfate-proteoglycans [KS/CS-PG]”?
Effect of KS/CS-PG on Cell Migration [1, 8]: +; Effect of KS/CS-PG on Cell Migration [1, 9]: +/−; Effect of KS/CS-PG on Cell Migration [1, 10]: +/−; Effect of KS/CS-PG on Cell Migration [1, 11]: +/−; Effect of KS/CS-PG on Cell Migration [1, 12]: −; Effect of KS/CS-PG on Cell Migration [2, 9]: +; Effect of KS/CS-PG on Cell Migration [2, 10]: +/−; Effect of KS/CS-PG on Cell Migration [2, 11]: +/−; Effect of KS/CS-PG on Cell Migration [2, 12]: +/−; Effect of KS/CS-PG on Cell Migration (rat C6 glioma; [9]): +; Effect of KS/CS-PG on Cell Migration (rat C6 glioma; [10]): +; Effect of KS/CS-PG on Cell Migration (rat C6 glioma; [11]): +; Effect of KS/CS-PG on Cell Migration (rat C6 glioma; [12]): +/−; time by which C6 overcame inhibition (rat C6 glioma; 2.7 mg/ml KS/CS-PG, following plating): ≤ 48 h; Effect of KS/CS-PG on Cell Migration (rat astrocytes (RAST); [8]): +; Effect of KS/CS-PG on Cell Migration (rat astrocytes (RAST); [9]): +/−; Effect of KS/CS-PG on Cell Migration (rat astrocytes (RAST); [10]): +/−; Effect of KS/CS-PG on Cell Migration (rat astrocytes (RAST); [11]): +/−; Effect of KS/CS-PG on Cell Migration (rat astrocytes (RAST); [12]): −

Which “TOTAL SCORE 4 WEEKS” value [3] does the source give for dextran sulfate here?
The value was 1.8 ± 0.9.

How did the “TOTAL SCORE 4 WEEKS” value [3] turn out when dextran [reference compound] was run?
The value was 10.0 ± 1.2.
